# Measured values as given in patent US6573258B2, “Photodynamic porphyrin antimicrobial agents” (Frontier Scientific, Inc., priority 2000, dated 2003).
# How the values were obtained:
# S. aureus cells [1] = test: Growth inhibition after 5 min incubation with porphyrin and white-light irradiation; assay type: cell-based, Staphylococcus aureus
# Method: (§1) The abilities of various examples of the porphyrins of the instant invention to kill Gram-negative and Gram-positive bacteria were tested against that of T4MPyP. Each of the compounds was incubated with E. coli and S. aureus cells for 5 minutes, following which the samples were irradiated with white light for varying lengths of time.
# (§2) Escherichia coli strain O4 (wild type), and methycillin-resistant Staphylococcus aureus, strain MRSA 110, were grown aerobically at 37° C. in brain heart infusion broth (BHI, Difco, Detroit, Mich.). The cells in the stationary phase of growth were harvested by centrifugation (2,000 g for 15 min) of the broth cultures, washed twice with 10 mM PBS at pH=7.4, containing 2.7 mM KCl and 0.14 M NaCl, and suspended in PBS at a density of 10^8-10^9 cells/ml (absorbance of about 0.7 at 650 nm). Aliquots of 5 ml of the cell suspension were incubated with 1 μM porphyrins for 5 min in the dark at room temperature. After incubation the suspensions were centrifuged and the cell pellets were collected immediately or washed with PBS and centrifuged again for one or three times.
# (§3) The toxic effects of T4MPyP and its analogues on E. coli and S. aureus cells were evaluated by measuring the extent of growth inhibition (bacteriostatic effect) and reduction of survival (cytocidal/bacteriocidal effect) following treatment with porphyrin in the dark or upon light exposure.
# […] After dark-incubation, some of the cell samples were irradiated with white light (150 mW/cm^2). During irradiation, (up to 30 min) the cells were kept at 37° C. and magnetically stirred. The treated and untreated control cells were diluted with BHI and maintained at 37° C. while the absorbance of the suspension at 650 nm was monitored at predetermined time periods for determining growth curves. The percent of growth inhibition in the treated cells was calculated by the following equation:
# (§4) where AX, and AC are the absorbances measured after 3 h incubation, respectively, for the treated and control cell suspensions, respectively, while A0 represents the initial absorbance and the AC is that of the control cell suspension after 5 hours incubation. Cell survival was determined by plating serially diluted aliquots of treated and untreated cells on brain heart agar and counting the number of colonies after 18-24 h incubation at 37° C.
# E. coli cells [2] = test: Dark toxicity of porphyrins on bacteria cells; assay type: cell-based, Escherichia coli; conditions: 10 μM, 5 min incubation in the dark
# Method: as §3
# (§5) In all cases, 5 ml of the cell suspension (10^8-10^9 cells/ml) were incubated for 5 min in the dark at room temperature with the selected photosensitizer at concentrations ranging between 0.5 and 10 μM. After dark-incubation, some of the cell samples were irradiated with white light (150 mW/cm^2). During irradiation, (up to 30 min) the cells were kept at 37° C. and magnetically stirred. The treated and untreated control cells were diluted with BHI and maintained at 37° C. while the absorbance of the suspension at 650 nm was monitored at predetermined time periods for determining growth curves. The percent of growth inhibition in the treated cells was calculated by the following equation: […]
# as §4
# S. aureus cells [3] = test: Dark toxicity of porphyrins on bacteria cells; assay type: cell-based, Staphylococcus aureus; conditions: 10 μM, 5 min incubation in the dark
# Method: as §3, §5, §4
# E. coli cells [4] = test: Growth inhibition after 5 min incubation with porphyrin and white-light irradiation; assay type: cell-based, Escherichia coli; conditions: for concentration photoinducing significant bacteriostatic and bactericidal action: both cell strains (S. aureus and E. coli)
# Method: as §1, §2, §3, §5, §4
# E. coli cells [5] = test: Decrease of cell survival (colony counting) after white-light irradiation; assay type: cell-based, Escherichia coli; conditions: for DECREASE OF SURVIVAL (log): 5 min dark incubation, 15 min white light (150 mW/cm^2)
# Method: as §2, §3, §5, §4
# [6] = Photosensitized photooxidation of NATA; conditions: 10 μM NATA; for ΦSDS × 10^3, quantum yield for photo-oxidation of NATA: aqueous 2% SDS; for ΦPBS × 10^3, quantum yield for photo-oxidation of NATA: phosphate buffered solution
# Method: The photosensitizing activity of the various porphyrins was tested by measuring their efficiency in promoting the photooxidation of N-acetyl-L-tryptophanamide (NATA, Aldrich Chem. Co.) as a model biological substrate. Toward this aim, 10 μM NATA in PBS or in water containing 2% SDS was irradiated in the presence of 5 μM porphyrin. The irradiations were performed with 515±10 nm-light isolated by means of an interference filter (Balzers, Liechtenstein), while the solution (2 ml) was magnetically stirred in a quartz cuvette of 1-cm optical path and kept at 25° C. The photosensitized modification of NATA was followed by measuring the decrease in the intensity of its fluorescence emission spectrum (300-450 nm) upon excitation with 290 nm-light at various irradiation times. Plots of in F°/F (where F° and F represent the fluorescence intensity at time 0 and t, respectively) vs. the irradiation time allowed the first-order rate constants of the photo-process to be derived.
# The intensity of the incident light was measured by using Aberchrome 999P in toluene as an actinometer. Heller, EPA Newslett., 29:49-60 (1987). This parameter was used to calculate the quantum yields of NATA photooxidation sensitized by the different porphyrins.
# [7] = Fluorescence decay times (phase-shift method); assay type: physicochemical; conditions: ca. 5 μM, air-equilibrated buffer pH 7.4, λexc = 420 nm, λem > 600 nm; for A1, relative weight of fast component: dihydrochloride salt
# Method: Fluorescence decay times of the porphyrin samples were measured by means of a Spex Fluorolog-τ2 spectrofluorimeter based on the phase-shift method. The frequency response curves (phase-shift and demodulation ratio vs. frequency) were globally analyzed.
# [8] = Fluorescence quantum yields; assay type: physicochemical; conditions: for ΦF (PBS), fluorescence quantum yield: in PBS; for ΦF (SDS), fluorescence quantum yield: in aqueous 2% SDS
# Method: Ground-state absorption spectra of the porphyrins (ca. 5 μM in phosphate buffered saline (PBS, pH=7.4) were recorded with a Lambda 5 Perkin-Elmer spectrophotometer. Fluorescence spectra, corrected for the instrumental response, were recorded with a Perkin-Elmer (model LS) or a Spex (Fluorolog F112) spectrofluorimeter. Fluorescence quantum yields ((IF) of the porphyrin derivatives in PBS and in water containing 2% sodium dodecylsulfate (a detergent, hereinafter “SDS”) were determined by measuring the area of the emission spectrum (600-800 nm range, excitation at 560 nm) and using tetra-n-propylporphycene in toluene as a reference (ΦF=0.38). Braslavsky et al, J. Photochem. Photobiol. B: Biol., 40:191-198 (1997). In all cases, the absorbance of the sample and the reference solution were kept below 0.1 at the excitation wavelength to minimize inner filter effects.
# [9] = Triplet state properties by laser flash photolysis; assay type: physicochemical; conditions: phosphate-buffered solution; for φT, triplet quantum yield: ε920 estimated by total depletion method
# Method: Laser flash photolysis experiments were carried out by use of the setup previously described in Gomer, et al., with excitation wavelengths of 355 and 420 nm. Gorner, et al., Photoinduced electron transfer between styrylanthracenes and electron donors and acceptors in acetonitrile, J. Chem. Soc. Faraday Trans., vol. 88, pp. 29-34 (1992).
# The transient spectra of the porphyrins in buffer solutions were recorded upon laser flash photolysis excitation at 355 and 420 nm. […] The decay (growth) of the signal (bleaching) occurred according to first-order kinetics and led to a complete recovery of the ground state with a lifetime of 91 μs. […] This also allowed the triplet quantum yield (φT) to be determined (see Table 3), after calibration of the experimental setup by use of an optically-matched solution of benzophenone in acetonitrile.
# S. aureus cells [10] = test: Binding of porphyrins to bacteria cells; assay type: cell-based, Staphylococcus aureus; conditions: 1 μM, 5 min
# Method: as §2
# The amount of cell-bound porphyrins was determined in the pellets after resuspension and overnight-incubation in 2% aqueous SDS. The porphyrin concentration in the cell lysate was determined by measuring the intensity of red fluorescence (600-750 nm) emitted after excitation at 420 nm and interpolating the data on a calibration plot obtained with known porphyrin concentrations. The protein content of the cell samples was determined by the method of Lowry (Lowry et al., J. Biol. Chem., 193:265-275 (1951)) and was used to express the amount of porphyrin bound to the cells as nanomoles of porphyrin/mg of protein.
# [11] = Table 5: 0.5 μM, 5 min incubation, 5 min white light (150 mW/cm^2)
# [12] = 0.5 μM, incubated 5 min, white light 5 min
# [13] = 0.5 μM, incubated 5 min, white light 10 min
Molecule,Growth inhibition (%) S. aureus (S. aureus cells [1]; [11]) [%],Growth inhibition (%) E. coli (E. coli cells [4]; [12]) [%],Growth inhibition (%) E. coli (E. coli cells [4]; [11]) [%],concentration photoinducing significant bacteriostatic and bactericidal action (E. coli cells [4]),DECREASE OF SURVIVAL (log) (E. coli cells [5]; 1 μM porphyrin),"ΦSDS × 10^3, quantum yield for photo-oxidation of NATA [6]","ΦPBS × 10^3, quantum yield for photo-oxidation of NATA [6]","A2, relative weight of slow component [7] [%]","τ1, fluorescence decay time of fast component [7] [ns]","τ2, fluorescence decay time of slow component [7] [ns]","A1, relative weight of fast component [7] [%]","ΦF (PBS), fluorescence quantum yield [8]","ΦF (SDS), fluorescence quantum yield [8]",λmax of transient spectrum [9] [nm],λmin of transient spectrum [9] [nm],φ×ε920 [9] [M⁻¹ cm⁻¹],"τ^N2, triplet lifetime [9] [μs]","τ^air, triplet lifetime [9] [μs]","φT, triplet quantum yield [9]",association with S. aureus compared with E. coli (S. aureus cells [10]),other results
"5-(4-N-hexylpyridyl)-10,15,20-tris(4-N-methylpyridyl)-21H,23H-porphine tetrachloride dihydrochloride salt [Porphyrin C6]",47,4.8,5,10 µM,+0.05 log,0.68 ± 0.14,0.59 ± 0.05,94,0.9,5.1,6,0.018,0.029,480,425,6217,71,16,0.48,almost two-fold larger,"inhibition of bacterial cell growth in the dark (E. coli cells [2]): barely detectable inhibition; inhibition of bacterial cell growth in the dark (S. aureus cells [3]): barely detectable inhibition; Growth inhibition (%) E. coli (E. coli cells [4]; 0.5 μM, incubated 5 min, white light 30 min): 15.5%; Growth inhibition (%) E. coli (E. coli cells [4]; 10 μM, incubated 5 min, white light 5 min): 98.7%; Growth inhibition (%) E. coli (E. coli cells [4]; 10 μM, incubated 5 min, white light 10 min): 100%; Growth inhibition (%) E. coli (E. coli cells [4]; Table 5: 10 μM, 5 min incubation, 5 min white light (150 mW/cm^2)): 99%; DECREASE OF SURVIVAL (log) (E. coli cells [5]; 10 μM porphyrin): −4.23 ± 0.54 log"
"CCCCCCCCCC[n+]1ccc(-c2c3nc(c(-c4cc[n+](C)cc4)c4ccc([nH]4)c(-c4cc[n+](C)cc4)c4nc(c(-c5cc[n+](C)cc5)c5ccc2[nH]5)C=C4)C=C3)cc1.Cl.Cl.[Cl-].[Cl-].[Cl-].[Cl-] [Porphyrin C10, 5-(4-N-decylpyridyl)-10,15,20-tris(4-N-methylpyridyl)-21H,23H-porphine tetrachloride dihydrochloride salt]",74,46.3,46,ten-fold lower concentration,−4.32 ± 0.34 log,0.64 ± 0.26,0.59 ± 0.05,94,1.1,5.2,6,0.015,0.026,490,420,10214,67,20,0.49,almost two-fold larger,"Growth inhibition (%) S. aureus (S. aureus cells [1]; [12]): 73.9%; Growth inhibition (%) S. aureus (S. aureus cells [1]; [13]): 87.9%; Growth inhibition (%) E. coli (E. coli cells [4]; [13]): 92%; Growth inhibition (%) E. coli (E. coli cells [4]; 1 μM, incubated 5 min, white light 5 min): 96.1%; Growth inhibition (%) E. coli (E. coli cells [4]; 1 μM, incubated 5 min, white light 10 min): 100%; drop in survival of E. coli cells (E. coli cells [5]; 1 μM porphyrin, 15 min irradiation): 4 log"
